Experimental data as given in PubChem BioAssay AID256 (DTP/NCI, 2004).
“And” between values parts separate entries of the source, which are not always exact repeats. Equal values may be shown once. Inconclusive results and toxic doses are left out.

Test system: CD2F1 mice, L1210 leukemia ip, survival T/C
Experiment: NCI In Vivo Anticancer Drug Screen. Data for tumor model L1210 Leukemia (intraperitoneal) in CD2F1 (CDF1) mice
Settings: higher = longer survival
Procedure, shortened: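 Implant tumor; dose compound or vehicle; measure endpoint in both groups; report treated divided by control.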

Cc1cc(=O)[nH]c(-n2nc(N)nc2N)n1
T/C (endpoint: mean survival time, dose: 75.0 mg/kg/injection, schedule: Q01DX001 (ip), vehicle: saline): 107 % of control
T/C (endpoint: mean survival time, dose: 150.0 mg/kg/injection, schedule: Q01DX001 (ip), vehicle: saline): 101 % of control
T/C (endpoint: mean survival time, dose: 300.0 mg/kg/injection, schedule: Q01DX001 (ip), vehicle: saline): 101 % of control

O=C1NC2(CCCCC2)C(=O)N1CCN(CCCl)CCCl
T/C (endpoint: median survival time, dose: 0.5 mg/kg/injection, schedule: Q03HX024 (ip), vehicle: Klucel (hydroxypropylcellulose) (HPC)): 98 % of control
T/C (endpoint: median survival time, dose: 1.0 mg/kg/injection, schedule: Q01DX009 (ip), vehicle: Klucel (hydroxypropylcellulose) (HPC)): 101 % of control
T/C (endpoint: median survival time, dose: 1.0 mg/kg/injection, schedule: Q01DX009 (sc), vehicle: Klucel (hydroxypropylcellulose) (HPC)): 98 % of control
T/C (endpoint: median survival time, dose: 1.0 mg/kg/injection, schedule: Q03HX016 (ip), vehicle: Klucel (hydroxypropylcellulose) (HPC)): 96 % of control
T/C (endpoint: median survival time, dose: 1.0 mg/kg/injection, schedule: Q03HX024 (ip), vehicle: Klucel (hydroxypropylcellulose) (HPC)): 98 % of control
T/C (endpoint: median survival time, dose: 2.0 mg/kg/injection, schedule: Q01DX009 (ip), vehicle: Klucel (hydroxypropylcellulose) (HPC)): 101 % of control
T/C (endpoint: median survival time, dose: 2.0 mg/kg/injection, schedule: Q01DX009 (sc), vehicle: Klucel (hydroxypropylcellulose) (HPC)): 101 % of control
T/C (endpoint: median survival time, dose: 2.0 mg/kg/injection, schedule: Q03HX008 (ip), vehicle: Klucel (hydroxypropylcellulose) (HPC)): 110 % of control
T/C (endpoint: median survival time, dose: 2.0 mg/kg/injection, schedule: Q03HX016 (ip), vehicle: Klucel (hydroxypropylcellulose) (HPC)): 104 % of control
T/C (endpoint: median survival time, dose: 2.0 mg/kg/injection, schedule: Q03HX024 (ip), vehicle: Klucel (hydroxypropylcellulose) (HPC)): 106 % of control
T/C (endpoint: median survival time, dose: 4.0 mg/kg/injection, schedule: Q01DX009 (ip), vehicle: Klucel (hydroxypropylcellulose) (HPC)): 107 % of control
T/C (endpoint: median survival time, dose: 4.0 mg/kg/injection, schedule: Q01DX009 (oral), vehicle: Klucel (hydroxypropylcellulose) (HPC)): 123 % of control
T/C (endpoint: median survival time, dose: 4.0 mg/kg/injection, schedule: Q01DX009 (sc), vehicle: Klucel (hydroxypropylcellulose) (HPC)): 103 % of control
T/C (endpoint: median survival time, dose: 4.0 mg/kg/injection, schedule: Q03HX008 (ip), vehicle: Klucel (hydroxypropylcellulose) (HPC)): 106 % of control
T/C (endpoint: median survival time, dose: 4.0 mg/kg/injection, schedule: Q03HX016 (ip), vehicle: Klucel (hydroxypropylcellulose) (HPC)): 103 % of control
T/C (endpoint: median survival time, dose: 4.0 mg/kg/injection, schedule: Q03HX024 (ip), vehicle: Klucel (hydroxypropylcellulose) (HPC)): 109 % of control
T/C (endpoint: median survival time, dose: 4.0 mg/kg/injection, schedule: Q04DX003 (ip), vehicle: Klucel (hydroxypropylcellulose) (HPC)): 100 % of control
T/C (endpoint: median survival time, dose: 6.0 mg/kg/injection, schedule: Q01DX009 (ip), vehicle: Klucel (hydroxypropylcellulose) (HPC)): 153 % of control
T/C (endpoint: median survival time, dose: 8.0 mg/kg/injection, schedule: Q01DX009 (ip), vehicle: Klucel (hydroxypropylcellulose) (HPC)): 106 % of control
T/C (endpoint: median survival time, dose: 8.0 mg/kg/injection, schedule: Q01DX009 (oral), vehicle: Klucel (hydroxypropylcellulose) (HPC)): 115 % of control
T/C (endpoint: median survival time, dose: 8.0 mg/kg/injection, schedule: Q01DX009 (sc), vehicle: Klucel (hydroxypropylcellulose) (HPC)): 114 % of control
T/C (endpoint: median survival time, dose: 8.0 mg/kg/injection, schedule: Q03HX008 (ip), vehicle: Klucel (hydroxypropylcellulose) (HPC)): 115 % of control
T/C (endpoint: median survival time, dose: 8.0 mg/kg/injection, schedule: Q03HX016 (ip), vehicle: Klucel (hydroxypropylcellulose) (HPC)): 111 % of control
T/C (endpoint: median survival time, dose: 8.0 mg/kg/injection, schedule: Q03HX024 (ip), vehicle: Klucel (hydroxypropylcellulose) (HPC)): 122 % of control
T/C (endpoint: median survival time, dose: 8.0 mg/kg/injection, schedule: Q04DX003 (ip), vehicle: Klucel (hydroxypropylcellulose) (HPC)): 103 % of control
T/C (endpoint: median survival time, dose: 8.0 mg/kg/injection, schedule: Q08DX002 (ip), vehicle: Klucel (hydroxypropylcellulose) (HPC)): 106 % of control
T/C (endpoint: median survival time, dose: 9.0 mg/kg/injection, schedule: Q01DX009 (ip), vehicle: Klucel (hydroxypropylcellulose) (HPC)): 157 % of control and 164 % of control
T/C (endpoint: median survival time, dose: 13.0 mg/kg/injection, schedule: Q01DX009 (ip), vehicle: Klucel (hydroxypropylcellulose) (HPC)): 164 % of control and 176 % of control
T/C (endpoint: median survival time, dose: 16.0 mg/kg/injection, schedule: Q01DX001 (ip), vehicle: Klucel (hydroxypropylcellulose) (HPC)): 116 % of control
T/C (endpoint: median survival time, dose: 16.0 mg/kg/injection, schedule: Q01DX001 (sc), vehicle: Klucel (hydroxypropylcellulose) (HPC)): 92 % of control
T/C (endpoint: median survival time, dose: 16.0 mg/kg/injection, schedule: Q01DX009 (ip), vehicle: Klucel (hydroxypropylcellulose) (HPC)): 112 % of control
T/C (endpoint: median survival time, dose: 16.0 mg/kg/injection, schedule: Q01DX009 (oral), vehicle: Klucel (hydroxypropylcellulose) (HPC)): 112 % of control
T/C (endpoint: median survival time, dose: 16.0 mg/kg/injection, schedule: Q01DX009 (sc), vehicle: Klucel (hydroxypropylcellulose) (HPC)): 107 % of control
T/C (endpoint: median survival time, dose: 16.0 mg/kg/injection, schedule: Q03HX008 (ip), vehicle: Klucel (hydroxypropylcellulose) (HPC)): 122 % of control
T/C (endpoint: median survival time, dose: 16.0 mg/kg/injection, schedule: Q04DX003 (ip), vehicle: Klucel (hydroxypropylcellulose) (HPC)): 113 % of control
T/C (endpoint: median survival time, dose: 16.0 mg/kg/injection, schedule: Q08DX002 (ip), vehicle: Klucel (hydroxypropylcellulose) (HPC)): 109 % of control
T/C (endpoint: median survival time, dose: 32.0 mg/kg/injection, schedule: Q01DX001 (ip), vehicle: Klucel (hydroxypropylcellulose) (HPC)): 122 % of control
T/C (endpoint: median survival time, dose: 32.0 mg/kg/injection, schedule: Q01DX001 (oral), vehicle: Klucel (hydroxypropylcellulose) (HPC)): 100 % of control
T/C (endpoint: median survival time, dose: 32.0 mg/kg/injection, schedule: Q01DX001 (sc), vehicle: Klucel (hydroxypropylcellulose) (HPC)): 101 % of control
T/C (endpoint: median survival time, dose: 32.0 mg/kg/injection, schedule: Q01DX009 (oral), vehicle: Klucel (hydroxypropylcellulose) (HPC)): 123 % of control
T/C (endpoint: median survival time, dose: 32.0 mg/kg/injection, schedule: Q01DX009 (sc), vehicle: Klucel (hydroxypropylcellulose) (HPC)): 106 % of control
T/C (endpoint: median survival time, dose: 32.0 mg/kg/injection, schedule: Q04DX003 (ip), vehicle: Klucel (hydroxypropylcellulose) (HPC)): 114 % of control
T/C (endpoint: median survival time, dose: 32.0 mg/kg/injection, schedule: Q08DX002 (ip), vehicle: Klucel (hydroxypropylcellulose) (HPC)): 114 % of control
T/C (endpoint: median survival time, dose: 64.0 mg/kg/injection, schedule: Q01DX001 (ip), vehicle: Klucel (hydroxypropylcellulose) (HPC)): 117 % of control
T/C (endpoint: median survival time, dose: 64.0 mg/kg/injection, schedule: Q01DX001 (oral), vehicle: Klucel (hydroxypropylcellulose) (HPC)): 101 % of control
T/C (endpoint: median survival time, dose: 64.0 mg/kg/injection, schedule: Q01DX001 (sc), vehicle: Klucel (hydroxypropylcellulose) (HPC)): 102 % of control
T/C (endpoint: median survival time, dose: 64.0 mg/kg/injection, schedule: Q01DX009 (oral), vehicle: Klucel (hydroxypropylcellulose) (HPC)): 124 % of control
T/C (endpoint: median survival time, dose: 64.0 mg/kg/injection, schedule: Q08DX002 (ip), vehicle: Klucel (hydroxypropylcellulose) (HPC)): 119 % of control
T/C (endpoint: median survival time, dose: 128.0 mg/kg/injection, schedule: Q01DX001 (oral), vehicle: Klucel (hydroxypropylcellulose) (HPC)): 104 % of control
T/C (endpoint: median survival time, dose: 128.0 mg/kg/injection, schedule: Q01DX001 (sc), vehicle: Klucel (hydroxypropylcellulose) (HPC)): 105 % of control
T/C (endpoint: median survival time, dose: 128.0 mg/kg/injection, schedule: Q08DX002 (ip), vehicle: Klucel (hydroxypropylcellulose) (HPC)): 110 % of control
T/C (endpoint: median survival time, dose: 256.0 mg/kg/injection, schedule: Q01DX001 (ip), vehicle: Klucel (hydroxypropylcellulose) (HPC)): 116 % of control
T/C (endpoint: median survival time, dose: 256.0 mg/kg/injection, schedule: Q01DX001 (oral), vehicle: Klucel (hydroxypropylcellulose) (HPC)): 107 % of control
T/C (endpoint: median survival time, dose: 256.0 mg/kg/injection, schedule: Q01DX001 (sc), vehicle: Klucel (hydroxypropylcellulose) (HPC)): 104 % of control
T/C (endpoint: median survival time, dose: 512.0 mg/kg/injection, schedule: Q01DX001 (oral), vehicle: Klucel (hydroxypropylcellulose) (HPC)): 107 % of control

O=C1C(=O)c2cccc3cccc1c23
T/C (endpoint: mean survival time, dose: 100.0 mg/kg/injection, schedule: Q01DX001 (ip), vehicle: saline with Tween-80): 100 % of control
T/C (endpoint: mean survival time, dose: 200.0 mg/kg/injection, schedule: Q01DX001 (ip), vehicle: saline with Tween-80): 92 % of control
T/C (endpoint: mean survival time, dose: 400.0 mg/kg/injection, schedule: Q01DX001 (ip), vehicle: saline with Tween-80): 97 % of control

CS(=O)(=O)OC1C(OC(=O)OCc2ccccc2)C2COC(O2)C1OC(=O)OCc1ccccc1 (stereo unspecified)
T/C (endpoint: mean survival time, dose: 100.0 mg/kg/injection, schedule: Q01DX009 (ip), vehicle: saline with Tween-80): 92 % of control
T/C (endpoint: mean survival time, dose: 200.0 mg/kg/injection, schedule: Q01DX009 (ip), vehicle: saline with Tween-80): 92 % of control
T/C (endpoint: mean survival time, dose: 400.0 mg/kg/injection, schedule: Q01DX009 (ip), vehicle: saline with Tween-80): 89 % of control

Nc1nc(N)c2[nH]c(-c3ccccc3)nc2n1
T/C (endpoint: mean survival time, dose: 6.25 mg/kg/injection, schedule: Q01DX005 (ip), vehicle: saline with Tween-80): 100 % of control
T/C (endpoint: mean survival time, dose: 12.5 mg/kg/injection, schedule: Q01DX005 (ip), vehicle: saline with Tween-80): 97 % of control
T/C (endpoint: mean survival time, dose: 25.0 mg/kg/injection, schedule: Q01DX005 (ip), vehicle: saline with Tween-80): 99 % of control
T/C (endpoint: mean survival time, dose: 50.0 mg/kg/injection, schedule: Q01DX005 (ip), vehicle: saline with Tween-80): 99 % of control

CC(=O)Nc1cc(C/C(N)=N/O)cc(NC(C)=O)c1
T/C (endpoint: mean survival time, dose: 100.0 mg/kg/injection, schedule: Q04DX003 (ip), vehicle: saline with Tween-80): 100 % of control
T/C (endpoint: mean survival time, dose: 200.0 mg/kg/injection, schedule: Q04DX003 (ip), vehicle: saline with Tween-80): 103 % of control
T/C (endpoint: mean survival time, dose: 400.0 mg/kg/injection, schedule: Q04DX003 (ip), vehicle: saline with Tween-80): 111 % of control
